Experimental data reported in patent publication US11026940B2, “Compositions for the mobilization, homing, expansion and differentiation of stem cells and methods of using the same” (Ampio Pharmaceuticals, Inc., priority 2013, dated 2021).
Where “and” joins values, the source holds several entries; their conditions need not be identical. Identical values can stand only once.

Legend:
Collagen 2A1 = experiment: Stem cell chondrogenesis, real time PCR gene expression: Collagen 2A1; assay type: cell-based, human; settings: for Cp Coll / Mean regulation: Collagen 2A1; for Cp Coll / Mean regulation / Mean ΔCp: Day 22; for Mean regulation: vs saline; for Mean ΔCp: Collagen 2A1 vs GAPDH; for regulation, Collagen 2A1 / Mean regulation, Collagen 2A1: fold regulation vs saline; for regulation, Collagen 2A1 / ΔCp, Collagen 2A1 / 2^-ΔΔCp vs saline, Collagen 2A1 / ΔΔCp vs saline, Collagen 2A1: single replicate well; for Mean regulation, Collagen 2A1 / Mean ΔCp, Collagen 2A1: triplicate wells; for ΔCp, Collagen 2A1: human bone marrow MSC, chondrogenic medium + TGF beta 3; for ΔCp, Collagen 2A1 / 2^-ΔΔCp vs saline, Collagen 2A1 / ΔΔCp vs saline, Collagen 2A1 / Mean ΔCp, Collagen 2A1: vs Actin
Description: (§1) • Stem Cells: Bone marrow derived human mesenchymal stem cells: Passage 5 Bone marrow derived human mesenchymal stem cells (HUXMA-01001, Cyagen Biosciences, Sunnyvale Calif.) • Mesenchymal Stem Cell Chondrogenic Differentiation medium (GUXMX-90041, Cyagen Biosciences, Sunnyvale Calif.) • TheraPEAK MSCGM chemically defined Stem cell medium (190632 Lonza) • 1 mM Dexamethasone acetate and mifepristone in absolute ethanol (Sigma) • Saline or 0.9% Sodium chloride for injection ZR Flush (Excelsior Medical, Neptune N.J.) • Sterile filtered 0.6 mM sodium caprylate in saline (sigma) • Sterile filtered 3 mM NAT in saline (sigma); To prepare, heat at 60° C. for 30 minutes then sonicate for 5 minutes. • Sterile filtered 10 mM DADKP in saline • 0.2 μM syringe filters • Hepes buffered saline, Trypsin/EDTA, Trypsin neutralizing solution (Lonza reagent pack) • 182 cm2 tissue culture flasks • pipettes and sterile tips • Tissue culture hood, humidified CO2 incubator, water or bead bath • 24 well tissue culture plates • Qiagen RNeasy plus spin columns (Qiagen 74134) • Qiagen RT2 qPCR primer pairs for Collagen 2A1, MMP13, TIMP1, Aggrecan, GAPDH, and Actin B • Roche Sybr green I master mix and Invitrogen Superscript VILO master mix. • Roche 480 lightcycler
(§2) The following stock drug treatment solutions were prepared in saline for injection and warmed to 37° C. in bath: • 4 μM dexamethasone • 4 μM mifepristone • 3 mM NAT • 0.6 mM caprylate • 80 μM DADKP • Mix of 3 mM NAT, 0.6 mM caprylate, 80 μM DADKP (“Ampion” mix)
(§3) Cyagen Chondrogenic Differentiation medium was prepared by manufacturer protocols but excluding dexamethasone and TGF beta 3 supplements, and warmed to 37° C. in bath.
(§4) The treatment protocol included expanding 5 HUXMA stem cells in 182 cm^2 flasks containing 40 mls TheraPEAK™ MSCGM to 80-90% confluence. Cells were trypsinized from the flasks and a 1.0×10^7 cell suspension of HUXMA stem cells was warmed in Cyagen Chondrogenic Differentiation medium. 20 μl of warmed cell suspension was spotted in the middle of each well of a 24-well tissue culture plate (200,000 cells per spot), and incubated at 37° C. and 5% CO2 for one hour.
(§5) The plates were removed from the incubator and an additional 720 μl chondrogenic medium was added to each well. 250 μl saline, or drug solutions were added to the appropriate wells in triplicate (bringing the final drug dilution to one-quarter of the stock drug treatment solution concentrations). 10 μl of TGF beta 3 solution (supplied by Cyagen) was added to each well, and the plates were returned to the incubator.
(§6) RNA isolation and analysis was conducted for all plates as follows at days 7, 14, and 22 post treatment (with the described medium exchanges). […] Qiagen RNeasy plus lysis buffer (with 2mercaptoethanol) was added to each well and gently shaken for 10 minutes. The lysed cell suspensions from each well were transferred to Qiashredder columns and spun at 14,000 rpm for 2 minutes. RNA isolation proceeded by RNeasy™ plus manufacturer's protocol. RNA was eluted from the Qiagen columns using 25 μl RNase free water.
(§7) cDNA synthesis and real time PCR was conducted as follows. First strand synthesis of cDNA from all samples was performed in 20 μl total volume using 10 μl isolated RNA. All cDNA reactions were then diluted with 30 μl nuclease free water. Real time PCR was then performed using 5 μl diluted cDNA, Roche Syber green master mix, and Qiagen RT^2 gPCR™ primer pairs in 20 μl total reaction volume. Relative gene expression was determined by delta deta Ct method.

SOX9 = experiment: Stem cell chondrogenesis, real time PCR gene expression: SOX9; assay type: cell-based, human; settings: Day 14
Description: The treatment protocol included expanding 5 HUXMA stem cells in 182 cm^2 flasks containing 40 […] to 80-90% confluence. Cells were trypsinized from the flasks and a 1.0×10^7 cell suspension of HUXMA stem cells was warmed in Cyagen Chondrogenic Differentiation medium. 20 μl of warmed cell suspension was spotted in the middle of each well of a 24-well tissue culture plate (200,000 cells per spot), and incubated at 37° C. and 5% CO2 for one hour. […] Medium exchanges were performed every 3-4 days by aspirating the medium from the wells and replacing with fresh chondrogenic medium, diluted stocks, and TGF beta 3, as described above. […] Medium from the wells was removed and saved for further protein analysis. Qiagen RNeasy plus lysis buffer (with 2mercaptoethanol) was added to each well and gently shaken for 10 minutes. The lysed cell suspensions from each well were transferred to Qiashredder columns and spun at 14,000 rpm for 2 minutes. RNA isolation proceeded by RNeasyTM plus manufacturer's protocol. RNA was eluted from the Qiagen columns using 25 μl RNase free water. cDNA synthesis and real time PCR was conducted as follows. First strand synthesis of cDNA from all samples was performed in 20 μl total volume using 10 μl isolated RNA. All cDNA reactions were then diluted with 30 μl nuclease free water. Real time PCR was then performed using 5 μl diluted cDNA, Roche Syber green master mix, and Qiagen RT^2 gPCRTM primer pairs in 20 μl total reaction volume.

Aggrecan = experiment: Stem cell chondrogenesis, real time PCR gene expression: Aggrecan; assay type: cell-based, human; settings: for Mean ΔCp / ΔCp: Aggrecan vs Actin; for Mean ΔCp / ΔCp / Cp Agg / Mean regulation: Day 22; for Cp Agg / Mean regulation: Aggrecan; for Mean regulation: vs saline
Description: as §1, §2, §3, §4, §5, §6, §7

[1] = system: Bone marrow derived human mesenchymal stem cells; experiment: Visual observation of cell aggregates in chondrogenic culture; assay type: cell-based; settings: day seven
MMP13 = experiment: Stem cell chondrogenesis, real time PCR gene expression: MMP13; assay type: cell-based, human; settings: for Mean regulation: vs saline; for Mean ΔCp / ΔCp: MMP13 vs GAPDH
Description: as §1, §2, §3, §4, §5, §6, §7

TIMP1 = experiment: Stem cell chondrogenesis, real time PCR gene expression: TIMP1; assay type: cell-based, human; settings: Day 22; for Mean ΔCp / ΔCp: TIMP1 vs Actin
Description: as §1, §2, §3, §4, §5, §6, §7

[2] = vs Actin, single replicate well
[3] = Day 7, vs Actin, single replicate well

C[C@@H]1NC(=O)[C@H](CC(=O)O)NC1=O [DADKP, aspartyl-alanyl diketopiperazine]
Cp Coll (Collagen 2A1; Table 12): 27.41 and 25.44 and 22.94 | Cp Coll (Collagen 2A1; Table 16): 27.41 and 25.44 and 22.94 | Mean regulation (Collagen 2A1; Table 12): 136.83 | Mean regulation (Collagen 2A1; Table 16): 136.83 | Mean ΔCp (Collagen 2A1; Table 12): 7.223 | Mean ΔCp (Collagen 2A1; Table 16): 7.223 | regulation, Collagen 2A1 (Collagen 2A1; Day 7): 1.65 and −2.28 and −1.25 | Mean regulation, Collagen 2A1 (Collagen 2A1; Day 7): −0.62 | ΔCp, Collagen 2A1 (Collagen 2A1; Day 7): 6.01 and 7.92 and 7.05 | 2^-ΔΔCp vs saline, Collagen 2A1 (Collagen 2A1; Day 7): 1.651 and 0.4393 and 0.8029 | ΔΔCp vs saline, Collagen 2A1 (Collagen 2A1; Day 7): −0.72 and 1.187 and 0.317 | Mean ΔCp, Collagen 2A1 (Collagen 2A1; Day 7): 6.993 | regulation, Collagen 2A1 (Collagen 2A1; Day 14): 1.48 and 2.56 and −1.02 | Mean regulation, Collagen 2A1 (Collagen 2A1; Day 14): 1.01 | ΔCp, Collagen 2A1 (Collagen 2A1; Day 14): 10.49 and 9.7 and 11.09 | 2^-ΔΔCp vs saline, Collagen 2A1 (Collagen 2A1; Day 14): 1.4811 and 2.5609 and 0.9772 | ΔΔCp vs saline, Collagen 2A1 (Collagen 2A1; Day 14): −0.57 and −1.36 and 0.033 | Mean ΔCp, Collagen 2A1 (Collagen 2A1; Day 14): 10.43 | collagen transcription (in words) (Collagen 2A1; day 22): greatly enhanced | increase in transcription of Collagen 2a1 (Collagen 2A1; day 22): 2000 fold | collagen transcription (in words) (Collagen 2A1; day fourteen, compared with the control in a pellet): still elevated | regulation, SOX9 (SOX9; fold regulation vs saline, single replicate well): −1.59 and 1.07 and 1.10 | Mean regulation, SOX9 (SOX9; fold regulation vs saline, triplicate wells): 0.19 | ΔCp, SOX9 (SOX9; human bone marrow MSC, chondrogenic medium + TGF beta 3, vs Actin, single replicate well): 7.85 and 7.08 and 7.04 | 2^-ΔΔCp vs saline, SOX9 (SOX9; [2]): 0.6285 and 1.0718 and 1.1019 | ΔΔCp vs saline, SOX9 (SOX9; [2]): 0.67 and −0.1 and −0.14 | Mean ΔCp, SOX9 (SOX9; vs Actin, triplicate wells): 7.323 | Mean ΔCp (Aggrecan; Table 12): 7.28 | ΔCp (Aggrecan; Table 12): 9.06 and 6.83 and 5.95 | Mean ΔCp (Aggrecan; Table 16): 7.28 | ΔCp (Aggrecan; Table 16): 9.06 and 6.83 and 5.95 | Cp Agg (Aggrecan; Table 12): 24.7 and 23.56 and 22.36 | Cp Agg (Aggrecan; Table 16): 24.7 and 23.56 and 22.36 | Mean regulation (Aggrecan; Table 12): 10.65 | Mean regulation (Aggrecan; Table 16): 10.65 | increase in transcription of aggrecan (Aggrecan; day 22): 20 fold | form of the culture (discs or pellets) [1]: pulled into loose pellets | regulation, MMP13 (MMP13; Day 7, fold regulation vs saline, single replicate well): −1.29 and 1.03 and −1.76 | Mean regulation, MMP13 (MMP13; Day 7, fold regulation vs saline, triplicate wells): −0.67 | ΔCp, MMP13 (MMP13; Day 7, human bone marrow MSC, chondrogenic medium + TGF beta 3, vs Actin, single replicate well): 5 and 4.6 and 5.45 | 2^-ΔΔCp vs saline, MMP13 (MMP13; [3]): 0.7774 and 1.0257 and 0.5691 | ΔΔCp vs saline, MMP13 (MMP13; [3]): 0.363 and −0.04 and 0.813 | Mean ΔCp, MMP13 (MMP13; Day 7, vs Actin, triplicate wells): 5.017 | Cp, MMP13 (MMP13; MMP13, Day 22, Table 12): 20.34 and 21.41 and 21.25 | 2^-ΔΔCp vs saline (MMP13; MMP13, Day 22, Table 16): 1.1277 and 1.0163 and 0.9352 | Cp, MMP13 (MMP13; MMP13, Day 22, Table 16): 20.34 and 21.41 and 21.25 | Mean regulation (MMP13; MMP13, Day 22, Table 12): 0.36 | Mean regulation (MMP13; MMP13, Day 22, Table 16): 0.36 | Mean ΔCp (MMP13; Day 22, Table 12): 2.96 | ΔCp (MMP13; Day 22, Table 12): 2.82 and 2.97 and 3.09 | Mean ΔCp (MMP13; Day 22, Table 16): 2.96 | ΔCp (MMP13; Day 22, Table 16): 2.82 and 2.97 and 3.09 | Cp TIMP1 (TIMP1; TIMP1, Table 12): 18.64 and 19.9 and 19.36 | 2-^ΔΔCp vs saline (TIMP1; TIMP1, Table 16): 1.7013 and 1.5122 and 1.7613 | Cp TIMP1 (TIMP1; TIMP1, Table 16): 18.64 and 19.9 and 19.36 | Mean regulation (TIMP1; TIMP1, vs saline, Table 12): 1.66 | regulation (TIMP1; TIMP1, vs saline, Table 12): 1.70 and 1.51 and 1.76 | regulation (TIMP1; TIMP1, vs saline, Table 16): 1.70 and 1.51 and 1.76 | Mean ΔCp (TIMP1; Table 12): 3.04 | ΔCp (TIMP1; Table 12): 3 and 3.17 and 2.95 | Mean ΔCp (TIMP1; Table 16): 3.04 | ΔCp (TIMP1; Table 16): 3 and 3.17 and 2.95
